Data published in patent publication US7398119B2, “Assessing blood brain barrier dynamics or identifying or measuring selected substances, including ethanol or toxins, in a subject by analyzing Raman spectrum signals” (Childrens Hospital Los Angeles, priority 1998, dated 2008).

How the values were obtained:
[1] = blood alcohol and brain alcohol levels; cited from earlier work
[2] = Correlation of aqueous humor glucose with rising blood glucose after ketamine/xylazine anesthesia; type: in vivo, New Zealand white rabbits; settings: xylazine 7.5 mg/kg with ketamine 50 mg/kg, single intramuscular injection
Protocol: Nine female New Zealand white rabbits were used for this part of the study. They were anesthetized with ketamine (50 mg/kg) and xylazine (7.5 mg/kg) given as a single intramuscular injection. Xylazine blocks release of insulin from the pancreas and causes blood glucose to rise (K. Chalabi et al., Ophthalmic Res. 19, 289 (1987); J. Arnbjerg et al., Ophthalmic Res. 22, 265 (1990)).
Blood samples were taken from the central ear arteries at various times following the injection of anesthetic once the animals were adequately anesthetized. Whole blood was immediately measured for glucose concentration with a commercial glucometer (Glucometer Elite, Bayer). In most instances two measurements were made. The average measurements are reported. If the measurements differed by more than 20%, a third measurement was made. […]
At various times after induction of anesthesia, samples of aqueous humor were taken. […] Aqueous humor glucose concentration was measured with the glucometer in a manner similar to the blood. […]
Average blood glucose concentrations for each animal were plotted against time after anesthetic injection. Since it was not possible to obtain blood samples simultaneous with aqueous humor samples, a best-fit second-order polynomial was calculated for each animal. […] Aqueous humor glucose concentration was then plotted against the calculated simultaneous blood glucose concentration for all animals. […]

SMILES | concentrations that may be lethal [1] | effect on blood glucose over time [2]
CCO [alcohol, ethanol] | above 1% | –
Cc1cccc(C)c1N=C1NCCCS1 [xylazine] | – | steadily rises at variable rates
